Patent US10167283B2, “β-lactamase inhibitors and uses thereof” (priority 2015, dated 2019)
Structures can show the parent of a compound that is named as a salt. Where two headings read alike, the source gives them in different places.

What was measured:
[1] = Pharmacokinetics in SD rats (iv); type: in vivo, SD rat; details: male, plasma; for half-life / clearance: SD, rat, iv, 1 mg/kg; for clearance: read-out: Cl—obs (converted); for Vd / AUC(0-t): SD rat, iv 1 mg/kg; for Vd: apparent volume of distribution, read-out: Vss—obs; for AUC(0-t): area under the curve 0→t
Procedure: Experimental Example 1: Pharmacokinetics Experiments of the Compound of the Present Invention in Rats Test animals: 3 male SD rats, bodyweight 200-250 g for each animal. Test samples were administrated via intravenous push (iv), dosage of administration was 1 mg/kg, volume of administration was 2 mL/kg. Collecting time points: iv: after administration 0.083 […]. At each time point, about 100 μL of whole blood was sampled via caudal vein, added to K2EDTA anti-coagulative tube, centrifuged in a refrigerated centrifuge under 8000 rpm for 6 min to separate plasma, and the plasma was stored in -80° C. refrigerator. Plasma (20 μL) was taken and placed in a 96-well deep-well plate, and internal standard solution (300 μL) was added, subjected to vortex for 5 min, then centrifuged under 12000 rpm for 5 min, and then supernatant (200 μL) was taken and subjected to vortex for 3 min; to be analyzed by LC-MS/MS. Plasma (30 μL) was taken and placed in 1.5 mL EP tube, and internal standard solution (300 μL) was added, subjected to vortex for 5 min, then centrifuged under 12000 rpm for 5 min, and then supernatant (200 μL) was taken and subjected to vortex for 3 min; to be analyzed by LC-MS/MS. Plasma (30 μL) was taken and placed in a 96-well deep-well plate, and internal standard solution (200 μL) was added, subjected to vortex for 5 min, then centrifuged under 4000 rpm for 20 min, and then supernatant (100 μL) was taken and water (100 μL) was added, and subjected to vortex homogeneously; to be analyzed by LC-MS/MS.

[2] = system: Klebsiella oxytoca ATCC-51983 (SHV-5); experiment: In vitro antibacterial activity, agar dilution MIC; type: cell-based; details: ATCC51983; Table 2; ATCC-51983 Klebsiella oxytoca, SHV-5; read-out: MIC
Description: (§1) Experimental strains: all experimental standard bacterial strains for enzyme production were purchased from ATCC, and the clinically separated CRE strain was purchased from Southwest Hospital of the Third Military Medical University.
(§2) Experimental Method: Agar dilution method, referring to M100-S23: Performance Standards for Antimicrobial Susceptibility Testing: Twenty-Third Informational Supplement (Clinical And Laboratory Standards Institute, 2013). Minimal inhibitory concentration (MIC, μg/mL) was calculated.

[3] = system: Escherichia coli BAA-2340 (KPC); experiment: In vitro antibacterial activity, agar dilution MIC; type: cell-based; details: BAA2340, Table 2, BAA-2340 Escherichia coli
Description: as §1, §2

[4] = system: Escherichia coli BAA-2523 (OXA-48); experiment: In vitro antibacterial activity, agar dilution MIC; type: cell-based; details: OXA-48, read-out: MIC
Description: as §1, §2

[5] = system: Klebsiella pneumoniae BAA-2524 (OXA-48); experiment: In vitro antibacterial activity, agar dilution MIC; type: cell-based; details: BAA2524; Table 2; BAA-2524 Klebsiella pneumoniae, OXA-48; read-out: MIC
Description: as §1, §2

[6] = system: Escherichia coli BAA-196 (TEM-10); experiment: In vitro antibacterial activity, agar dilution MIC; type: cell-based; details: TEM-10, read-out: MIC
Description: as §1, §2

[7] = system: Klebsiella pneumoniae BAA-2146 (NDM-1); experiment: In vitro antibacterial activity, agar dilution MIC; type: cell-based; details: NDM-1, read-out: MIC
Description: as §1, §2

[8] = system: Klebsiella pneumoniae BAA-1900 (KPC); experiment: In vitro antibacterial activity, agar dilution MIC; type: cell-based; details: KPC, read-out: MIC
Description: as §1, §2

[9] = system: Enterobacter hormaechei BAA-2082 (KPC); experiment: In vitro antibacterial activity, agar dilution MIC; type: cell-based; details: BAA2082; Table 2; BAA-2082 Enterobacter hormaechei, KPC; read-out: MIC
Description: as §1, §2

[10] = system: Escherichia coli BAA-2452 (NDM-1); experiment: In vitro antibacterial activity, agar dilution MIC; type: cell-based; details: NDM-1, read-out: MIC
Description: as §1, §2

[11] = system: Enterobacter cloacae BAA-2341 (KPC); experiment: In vitro antibacterial activity, agar dilution MIC; type: cell-based; details: BAA2341; Table 2; BAA-2341 Enterobacter cloacae, KPC; read-out: MIC
Description: as §1, §2

[12] = system: Klebsiella pneumoniae 7484kpn-631 (IMP, ESBLs); experiment: In vitro antibacterial activity on clinically separated CRE strain, agar dilution MIC; type: cell-based
Description: as §1, §2

[13] = system: Enterobacter cloacae 7495ecl-296 (IMP, ESBLs, AmpC); experiment: as above; type: cell-based; details: Table 3, 7495ecl-296 Enterobacter cloacae
Description: as §1, §2

[14] = system: Enterobacter cloacae 7511ecl-312 (NDM, ESBLs, AmpC); experiment: as above; type: cell-based; details: Table 3, 7511ecl-312 Enterobacter cloacae
Description: as §1, §2

[15] = system: Klebsiella pneumoniae 7460kpn-607 (NDM, ESBLs); experiment: as above; type: cell-based; details: Table 3, 7460kpn-607 Klebsiella pneumoniae
Description: as §1, §2

AmpC = molecular target: T1, AmpC (UniProt P05364); experiment: β-lactamase inhibition, Nitrocefin hydrolysis; type: biochemical; details: Nitrocefin 0.1 mM
T1 construct: The concentration of purchased β-lactamases mother liquor was 1 mg/mL, and the mother liquor was dissolved in 50% glycerol
Procedure: Nitrocefin, a kind of cephalosporin antibiotics, is sensitive to most of β-lactamases, and changes in color after being hydrolyzed. The hydrolysis rate of Nitrocefin was measured by real-time recording corresponding absorbance of reaction system. β-Lactamase inhibitors could inhibit hydrolysis of the enzymes to Nitrocefin, and reduce hydrolysis rate. By measuring reaction rates in the same reaction system under different inhibitor concentrations, the IC50 (half maximal inhibitory concentration) values of inhibitors were calculated.
Nitrocefin was dissolved in DMSO to form a solution with concentration of 2 mM, which was sub-packaged and stored at −20° C. The concentration of purchased β-lactamases mother liquor was 1 mg/mL, and the mother liquor was dissolved in 50% glycerol. A part of mother liquor was taken and diluted by 1000 times in reaction solution, sub-packaged and stored at ˜20° C.
The compounds to be tested were dissolved in DMSO to form a mother liquor with concentration of 10 mM. If not used that day, the mother liquor was stored at −20° C. Its test final concentrations were: 100 μM, 25 μM, 6.25 μM, 1.563 μM, 390.6 nM, 97.66 nM, 24.41 nM, 6.10 nM, 1.53 nM, 0.381 nM, 0.095 nM.

[16] = BAA2523, Table 2, BAA-2523 Escherichia coli
[17] = BAA196, Table 2, BAA-196 Escherichia coli
[18] = BAA2146, Table 2, BAA-2146 Klebsiella pneumoniae
[19] = BAA1900, Table 2, BAA-1900 Klebsiella pneumoniae
[20] = BAA2452, Table 2, BAA-2452 Escherichia coli
[21] = Table 3, 7484kpn-631 Klebsiella pneumoniae
[22] = Experiment 1, enzyme 0.4 nM, read-out: IC50 Type C AmpC

Q: For `NC(=O)[C@@H]1CC[C@@H]2CN1C(=O)N2OS(=O)(=O)O` [AVI sodium salt, Avibactam, reference compound], which half-life [1] is on record?
A: The half-life was 24.6 min.

Q: And the clearance [1]?
A: Its clearance is 14.9 mL/min/kg.

Q: What about the Vd [1] of the same compound?
A: Its Vd is 0.535 L/kg.

Q: And the AUC(0-t) [1]?
A: Its AUC(0-t) is 1140 ng·h/mL.

Q: And the MIC [2]?
A: Its MIC is > 8 µg/mL.

Q: And the MIC [3]?
A: Its MIC is 8 µg/mL.

Q: And the MIC [4, 16]?
A: Its MIC is 8 µg/mL.

Q: And the MIC ([4]; BAA2523, first Table 4, BAA-2523 Escherichia coli)?
A: The MIC was 16 µg/mL.

Q: What about the MIC [5] of the same compound?
A: The MIC was > 8 µg/mL.

Q: What about the MIC [6, 17] of the same compound?
A: The MIC was > 8 µg/mL.

Q: And the MIC ([6]; BAA196, first Table 4, BAA-196 Escherichia coli)?
A: Its MIC is 16 µg/mL.

Q: And the MIC [7, 18]?
A: Its MIC is > 8 µg/mL.

Q: What about the MIC ([7]; BAA2146, first Table 4, BAA-2146 Klebsiella pneumoniae) of the same compound?
A: The MIC was 8 µg/mL.

Q: And the MIC [8, 19]?
A: The MIC was > 8 µg/mL.

Q: And the MIC ([8]; BAA1900, first Table 4, BAA-1900 Klebsiella pneumoniae)?
A: Its MIC is 16 µg/mL.

Q: What about the MIC [9] of the same compound?
A: Its MIC is > 8 µg/mL.

Q: And the MIC [10, 20]?
A: Its MIC is > 8 µg/mL.

Q: And the MIC ([10]; BAA2452, first Table 4, BAA-2452 Escherichia coli)?
A: Its MIC is 16 µg/mL.

Q: What about the MIC [11] of the same compound?
A: Its MIC is > 8 µg/mL.

Q: And the MIC [12, 21]?
A: The MIC was > 8 µg/mL.

Q: What about the MIC ([12]; first Table 4, 7484kpn-631 Klebsiella pneumoniae) of the same compound?
A: Its MIC is 16 µg/mL.

Q: What about the MIC [13] of the same compound?
A: Its MIC is > 8 µg/mL.

Q: What about the MIC [14] of the same compound?
A: The MIC was > 8 µg/mL.

Q: What about the MIC [15] of the same compound?
A: Its MIC is > 8 µg/mL.

Q: And the IC50 (AmpC; [22])?
A: The IC50 was 101 nM.

Q: Which half-life [1] does the source give for `O=C(NC1CC2(CNC2)C1)[C@@H]1CC[C@@H]2CN1C(=O)N2OS(=O)(=O)O` [Compound 2, (2S,5R)-2-((2-azaspiro[3.3]heptan-6-yl)carbamoyl)-7-oxo-1,6-diazabicyclo[3.2.1]octan-6-yl hydrogen sulfate] here?
A: The half-life was 44.4 min.

Q: What about the clearance [1] of the same compound?
A: The clearance was 6.67 mL/min/kg.

Q: And the Vd [1]?
A: The Vd was 0.261 L/kg.

Q: What about the AUC(0-t) [1] of the same compound?
A: The AUC(0-t) was 2500 ng·h/mL.

Q: And the MIC [2]?
A: The MIC was 2 µg/mL.

Q: And the MIC [3]?
A: The MIC was 0.5 µg/mL.

Q: And the MIC [4, 16]?
A: Its MIC is 1 µg/mL.

Q: What about the MIC [5] of the same compound?
A: Its MIC is 2 µg/mL.

Q: What about the MIC [6, 17] of the same compound?
A: The MIC was 1 µg/mL.

Q: What about the MIC [7, 18] of the same compound?
A: Its MIC is 2 µg/mL.

Q: And the MIC [8, 19]?
A: Its MIC is 1 µg/mL.

Q: What about the MIC [9] of the same compound?
A: Its MIC is 2 µg/mL.

Q: What about the MIC [10, 20] of the same compound?
A: The MIC was 1 µg/mL.

Q: And the MIC [11]?
A: The MIC was 2 µg/mL.

Q: What about the MIC [12, 21] of the same compound?
A: The MIC was 2 µg/mL.

Q: And the MIC [13]?
A: The MIC was 2 µg/mL.

Q: And the MIC [14]?
A: Its MIC is 2 µg/mL.

Q: What about the MIC [15] of the same compound?
A: The MIC was 2 µg/mL.

Q: And the IC50 (AmpC; read-out: IC50 AmpC, Experiment 2, enzyme 1.6 nM)?
A: Its IC50 is 17.4 nM.

Q: What about the IC50 (AmpC; read-out: IC50 Type C AmpC, Experiment 1, enzyme 0.4 nM) of the same compound?
A: The IC50 was 32.6 nM.

Q: For `O=C(NC1CCNCC1)[C@@H]1CC[C@@H]2CN1C(=O)N2OS(=O)(=O)O` [MK-7655, reference compound], which half-life [1] is on record?
A: Its half-life is 23.4 min.

Q: And the clearance [1]?
A: The clearance was 16.7 mL/min/kg.

Q: And the Vd [1]?
A: Its Vd is 0.409 L/kg.

Q: What about the AUC(0-t) [1] of the same compound?
A: Its AUC(0-t) is 1020 ng·h/mL.

Q: What about the MIC [2] of the same compound?
A: The MIC was > 16 µg/mL.

Q: And the MIC [3]?
A: The MIC was > 16 µg/mL.

Q: What about the MIC [4, 16] of the same compound?
A: Its MIC is > 16 µg/mL.

Q: And the MIC [5]?
A: Its MIC is > 16 µg/mL.

Q: And the MIC [6, 17]?
A: Its MIC is > 16 µg/mL.

Q: And the MIC [7, 18]?
A: The MIC was > 16 µg/mL.

Q: And the MIC [8, 19]?
A: The MIC was > 16 µg/mL.

Q: What about the MIC [9] of the same compound?
A: The MIC was > 16 µg/mL.

Q: And the MIC [10, 20]?
A: Its MIC is > 16 µg/mL.

Q: And the MIC [11]?
A: Its MIC is > 16 µg/mL.

Q: And the MIC [12, 21]?
A: The MIC was > 8 µg/mL.

Q: And the MIC [13]?
A: The MIC was > 8 µg/mL.

Q: What about the MIC [14] of the same compound?
A: The MIC was > 8 µg/mL.

Q: And the MIC [15]?
A: Its MIC is > 8 µg/mL.

Q: And the IC50 (AmpC; [22])?
A: The IC50 was 49.5 nM.
